In PubChem BioAssay (NCI):
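GI50 marks 50% less growth. TGI is the concentration that stops growth completely.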

Assays:
Experiment in all cases: NCI-60 cell line screen, 384-well format
RXF 393 renal = tested on: RXF 393 renal
OVCAR-4 ovarian = tested on: OVCAR-4 ovarian
T-47D breast = tested on: T-47D breast
UACC-62 melanoma = tested on: UACC-62 melanoma
CAKI-1 renal = tested on: CAKI-1 renal
SNB-19 CNS = tested on: SNB-19 CNS
SK-OV-3 ovarian = tested on: SK-OV-3 ovarian
TK-10 renal = tested on: TK-10 renal
NCI/ADR-RES ovarian = tested on: NCI/ADR-RES ovarian
OVCAR-3 ovarian = tested on: OVCAR-3 ovarian
SR leukemia = tested on: SR leukemia
A498 renal = tested on: A498 renal
HOP-62 NSCLC = tested on: HOP-62 NSCLC
SNB-75 CNS = tested on: SNB-75 CNS
SK-MEL-5 melanoma = tested on: SK-MEL-5 melanoma
OVCAR-5 ovarian = tested on: OVCAR-5 ovarian
DU-145 prostate = tested on: DU-145 prostate
SW-620 colon = tested on: SW-620 colon
ACHN renal = tested on: ACHN renal
NCI-H226 lung = tested on: NCI-H226 lung
MDA-MB-435 melanoma = tested on: MDA-MB-435 melanoma
CCRF-CEM leukemia = tested on: CCRF-CEM leukemia
PC-3 prostate = tested on: PC-3 prostate
A549 NSCLC = tested on: A549 NSCLC
BT-549 breast = tested on: BT-549 breast
MCF7 breast = tested on: MCF7 breast
HCT-15 colon = tested on: HCT-15 colon
HL-60(TB) leukemia = tested on: HL-60(TB) leukemia
UO-31 renal = tested on: UO-31 renal
NCI-H460 NSCLC = tested on: NCI-H460 NSCLC
MALME-3M melanoma = tested on: MALME-3M melanoma
SF-295 CNS = tested on: SF-295 CNS
786-0 renal = tested on: 786-0 renal
EKVX NSCLC = tested on: EKVX NSCLC
U251 glioblastoma = tested on: U251 glioblastoma
M14 melanoma = tested on: M14 melanoma
SF-539 CNS = tested on: SF-539 CNS
K-562 leukemia = tested on: K-562 leukemia
OVCAR-8 ovarian = tested on: OVCAR-8 ovarian
NCI-H522 lung = tested on: NCI-H522 lung
KM12 colon = tested on: KM12 colon
SK-MEL-2 melanoma = tested on: SK-MEL-2 melanoma
IGROV1 ovarian = tested on: IGROV1 ovarian
NCI-H322M lung = tested on: NCI-H322M lung
LOX IMVI melanoma = tested on: LOX IMVI melanoma
HOP-92 NSCLC = tested on: HOP-92 NSCLC
MDA-MB-231 breast = tested on: MDA-MB-231 breast
HCT-116 colon = tested on: HCT-116 colon
MOLT-4 leukemia = tested on: MOLT-4 leukemia
MDA-MB-468 breast = tested on: MDA-MB-468 breast
HCC-2998 colon = tested on: HCC-2998 colon
SF-268 CNS = tested on: SF-268 CNS
HS 578T breast = tested on: HS 578T breast
RPMI-8226 leukemia = tested on: RPMI-8226 leukemia

Cc1cnc(NC2CCOCC2)nc1-n1cnc(C(=O)N[C@H](CN)c2cc(F)cc(Cl)c2)c1
GI50 (RXF 393 renal): 1590 nM
TGI (RXF 393 renal): 15000 nM
GI50 (OVCAR-4 ovarian): 21100 nM
TGI (OVCAR-4 ovarian): 48500 nM
GI50 (T-47D breast): 15600 nM
TGI (T-47D breast): 30300 nM
GI50 (UACC-62 melanoma): < 10 nM
TGI (UACC-62 melanoma): 41.2 nM
GI50 (CAKI-1 renal): 70.5 nM
TGI (CAKI-1 renal): 11500 nM
GI50 (SNB-19 CNS): 3680 nM
TGI (SNB-19 CNS): 21500 nM
GI50 (SK-OV-3 ovarian): 807 nM
TGI (SK-OV-3 ovarian): 15400 nM
GI50 (TK-10 renal): 91.9 nM
TGI (TK-10 renal): 3700 nM
GI50 (NCI/ADR-RES ovarian): 25700 nM
TGI (NCI/ADR-RES ovarian): > 100000 nM
GI50 (OVCAR-3 ovarian): 1050 nM
TGI (OVCAR-3 ovarian): 16800 nM
GI50 (SR leukemia): 2540 nM
TGI (SR leukemia): 11000 nM
GI50 (A498 renal): 405 nM
TGI (A498 renal): 12100 nM
GI50 (HOP-62 NSCLC): 1260 nM
TGI (HOP-62 NSCLC): 17300 nM
GI50 (SNB-75 CNS): 11400 nM
TGI (SNB-75 CNS): 23600 nM
GI50 (SK-MEL-5 melanoma): 17.3 nM
TGI (SK-MEL-5 melanoma): 4580 nM
GI50 (OVCAR-5 ovarian): < 10 nM
TGI (OVCAR-5 ovarian): 46900 nM
GI50 (DU-145 prostate): 768 nM
TGI (DU-145 prostate): 25500 nM
GI50 (SW-620 colon): 22.5 nM
TGI (SW-620 colon): 10500 nM
GI50 (ACHN renal): 1270 nM
TGI (ACHN renal): 18000 nM
GI50 (NCI-H226 lung): 63 nM
TGI (NCI-H226 lung): 38300 nM
GI50 (MDA-MB-435 melanoma): 18.1 nM
TGI (MDA-MB-435 melanoma): 17900 nM
GI50 (CCRF-CEM leukemia): 1470 nM
TGI (CCRF-CEM leukemia): 3190 nM
GI50 (PC-3 prostate): 6100 nM
TGI (PC-3 prostate): 20200 nM
GI50 (A549 NSCLC): 42.3 nM
TGI (A549 NSCLC): 18500 nM
GI50 (BT-549 breast): 2210 nM
TGI (BT-549 breast): 13000 nM
GI50 (MCF7 breast): 1090 nM
TGI (MCF7 breast): 13200 nM
GI50 (HCT-15 colon): 2780 nM
TGI (HCT-15 colon): 20800 nM
GI50 (HL-60(TB) leukemia): 17.2 nM
TGI (HL-60(TB) leukemia): 1240 nM
GI50 (UO-31 renal): 577 nM
TGI (UO-31 renal): 10600 nM
GI50 (NCI-H460 NSCLC): 98.5 nM
TGI (NCI-H460 NSCLC): 13600 nM
GI50 (MALME-3M melanoma): < 10 nM
GI50 (SF-295 CNS): 3580 nM
TGI (SF-295 CNS): 16300 nM
GI50 ([…]-0 renal): 2200 nM
TGI (786-0 renal): 16300 nM
GI50 (EKVX NSCLC): 524 nM
TGI (EKVX NSCLC): 14400 nM
GI50 (U251 glioblastoma): 75.6 nM
TGI (U251 glioblastoma): 10500 nM
GI50 (M14 melanoma): < 10 nM
TGI (M14 melanoma): 40.8 nM
GI50 (SF-539 CNS): 2050 nM
TGI (SF-539 CNS): 12400 nM
GI50 (K-562 leukemia): 198 nM
TGI (K-562 leukemia): 2520 nM
GI50 (OVCAR-8 ovarian): 4350 nM
TGI (OVCAR-8 ovarian): 19700 nM
GI50 (NCI-H522 lung): 52.4 nM
TGI (NCI-H522 lung): 16900 nM
GI50 (KM12 colon): 29.5 nM
TGI (KM12 colon): 17500 nM
GI50 (SK-MEL-2 melanoma): < 10 nM
TGI (SK-MEL-2 melanoma): 23.5 nM
GI50 (IGROV1 ovarian): 40.3 nM
TGI (IGROV1 ovarian): 7920 nM
GI50 (NCI-H322M lung): 21.5 nM
TGI (NCI-H322M lung): 23900 nM
GI50 (LOX IMVI melanoma): < 10 nM
TGI (LOX IMVI melanoma): 25.8 nM
GI50 (HOP-92 NSCLC): 23.8 nM
TGI (HOP-92 NSCLC): 81.4 nM
GI50 (MDA-MB-231 breast): 37.4 nM
TGI (MDA-MB-231 breast): 21500 nM
GI50 (HCT-116 colon): < 10 nM
TGI (HCT-116 colon): 34.8 nM
GI50 (MOLT-4 leukemia): 1260 nM
TGI (MOLT-4 leukemia): 2540 nM
GI50 (MDA-MB-468 breast): 351 nM
TGI (MDA-MB-468 breast): 2320 nM
GI50 (HCC-2998 colon): < 10 nM
TGI (HCC-2998 colon): 12.3 nM
GI50 (SF-268 CNS): 6610 nM
TGI (SF-268 CNS): 20400 nM
GI50 (HS 578T breast): 509 nM
TGI (HS 578T breast): 21100 nM
GI50 (RPMI-8226 leukemia): 2550 nM
TGI (RPMI-8226 leukemia): 14500 nM
